Columns and labels:
Format in all cases: binding
[1] = target: T1, VdesOBP5 (Varroa destructor, UniProt A0A7M7KHR4); test: fluorescent probe titration; settings: read-out: KNPN
T1 sequence (A0A7M7KHR4 22-231): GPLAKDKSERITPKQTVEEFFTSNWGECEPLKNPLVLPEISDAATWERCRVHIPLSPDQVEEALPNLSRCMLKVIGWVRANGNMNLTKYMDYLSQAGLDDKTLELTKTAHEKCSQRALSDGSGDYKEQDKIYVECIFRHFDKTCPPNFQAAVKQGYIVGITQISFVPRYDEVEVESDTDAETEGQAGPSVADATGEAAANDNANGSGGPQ
Text: fluorescent probe titration on VdesOBP5 | with VdesOBP4 and VdesOBP5 we obtained clear binding curves using 1-NPN as the fluorescent reporter

[2] = target: T2, VdesOBP1 (Varroa destructor, UniProt A0A7M7KVA6); test: intrinsic tryptophan fluorescence quenching
T2 construct: 147 residues; monomer
T2 sequence (A0A7M7KVA6 16-162): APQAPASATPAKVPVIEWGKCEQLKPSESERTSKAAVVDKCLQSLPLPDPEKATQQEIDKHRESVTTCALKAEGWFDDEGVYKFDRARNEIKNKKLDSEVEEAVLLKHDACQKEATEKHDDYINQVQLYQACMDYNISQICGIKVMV

[3] = target: T3, VdesOBP2 (Varroa destructor, UniProt A0A7M7JBN7); test: intrinsic tryptophan fluorescence quenching; settings: excitation 295 nm, emission 335-340 nm
T3 sequence (A0A7M7JBN7 16-163 limits assumed): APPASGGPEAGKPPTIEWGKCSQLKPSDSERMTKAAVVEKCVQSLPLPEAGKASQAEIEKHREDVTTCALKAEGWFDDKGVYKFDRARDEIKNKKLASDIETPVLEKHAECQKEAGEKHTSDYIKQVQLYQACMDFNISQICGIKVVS

[4] = excitation 295 nm, emission 335-340 nm

Row | SMILES | Kd [1] | quenching of intrinsic tryptophan fluorescence ([2]; dose-dependent quenching, probe emission itself unchanged) | quenching of intrinsic tryptophan fluorescence [2, 4] | quenching of intrinsic tryptophan fluorescence [3]
1 | c1ccc(Nc2cccc3ccccc23)cc1 [N-phenyl-1-naphthylamine] | 4.3 µM | we observed a dose-dependent quenching of the intrinsic tryptophan fluorescence | – | –
2 | COc1cc(C=O)ccc1O [vanillin] | – | – | they determined significant quenching of intrinsic tryptophan fluorescence in VdesOBP1 and VdesOBP2 | they determined significant quenching of intrinsic tryptophan fluorescence in VdesOBP1 and VdesOBP2
3 | COc1cc(/C=C/C=O)ccc1O [coniferyl aldehyde] | – | – | they determined significant quenching of intrinsic tryptophan fluorescence in VdesOBP1 and VdesOBP2 | they determined significant quenching of intrinsic tryptophan fluorescence in VdesOBP1 and VdesOBP2
4 | CC1=C(C=O)C(C)(C)CC=C1 [safranal] | – | – | they determined significant quenching of intrinsic tryptophan fluorescence in VdesOBP1 and VdesOBP2 | they determined significant quenching of intrinsic tryptophan fluorescence in VdesOBP1 and VdesOBP2

From PMC8222343, “A new non-classical fold of varroa odorant-binding proteins reveals a wide open internal cavity” (Scientific Reports, 2021)
